In patent US20240041042A1, “1-(PYRIDYL)-5-AZINYLPYRAZOLE DERIVATIVES, AND THEIR USE FOR CONTROL OF UNDESIRED PLANT GROWTH” (Bayer Aktiengesellschaft, priority 2020, published 2024):
Where two headings read alike, the source gives them in different places.

Tests used:
Assay type in all cases: in vivo
[1] = system: Viola tricolor (VIOTR); assay: Post-emergence herbicidal action against VIOTR
Method in brief: (§1)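 Doses of 320 g/ha or lower, suffixes a, b and c marking different dosages, were applied post-emergence at the one-leaf stage in 600 l/ha water with 0.5% additive. Damage was assessed visually after about 3 weeks in the greenhouse.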

[2] = system: Setaria viridis (SETVI); assay: Post-emergence herbicidal action against SETVI
Method in brief: as §1

[3] = system: Echinochloa crus-galli (ECHCG); assay: Post-emergence herbicidal action against ECHCG
Method in brief: as §1

[4] = system: Digitaria sanguinalis (DIGSA); assay: Post-emergence herbicidal action against DIGSA; conditions: visual rating about 3 weeks after treatment
Method in brief: as §1

[5] = system: Verconica persica (VERPE); assay: Post-emergence herbicidal action against VERPE
Method in brief: as §1

[6] = system: Matricaria inodora (MATIN); assay: Post-emergence herbicidal action against MATIN
Method in brief: as §1

[7] = system: Lolium rigidum (LOLRI); assay: Post-emergence herbicidal action against LOLRI
Method in brief: as §1

[8] = system: Oryza sativa (ORYSA); conditions: crop plant compatibility
Method in brief: (§2)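 Visual rating (% effect vs. untreated plants; 100% = plant death) made about 3 weeks after treatment. Plants had been sprayed at one-leaf stage, 2–3 weeks post-sowing, with aqueous WP/EC preparations containing 0.5% additive, 600 l/ha water volume; a, b, c mark dose levels.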

[9] = system: Zea mays (ZEAMX); conditions: for Post-emergence action against ZEAMX in % (crop plant compatibility): 20 g/ha, effect in comparison to untreated controls; for Post-emergence action against ZEAMX in %: crop plant compatibility, effect vs untreated controls
Method in brief: as §2

[10] = system: Triticum aestivum (TRZAS); conditions: crop plant compatibility, effect vs untreated controls
Method in brief: as §2

[11] = system: Alopecurus myosuroides (ALOMY); assay: Post-emergence herbicidal action against ALOMY; conditions: visual rating about 3 weeks after treatment vs untreated controls (100% = plants have died, 0% = like control plants)
Method in brief: as §1

[12] = system: Avena fatua (AVEFA); assay: Post-emergence herbicidal action against AVEFA; conditions: visual rating about 3 weeks after treatment
Method in brief: as §1

[13] = system: Amaranthus retroflexus (AMARE); assay: Post-emergence herbicidal action against AMARE
Method in brief: as §1

[14] = system: Pharbitis purpurea (PHBPU); assay: Post-emergence herbicidal action against PHBPU
Method in brief: as §1

[15] = system: Abutilon theophrasti (ABUTH); assay: Post-emergence herbicidal action against ABUTH; conditions: visual rating about 3 weeks after treatment vs untreated controls (100% = plants have died, 0% = like control plants)
Method in brief: as §1

[16] = system: Polygonum convolvulus (POLCO); assay: Post-emergence herbicidal action against POLCO
Method in brief: as §1

[17] = 20 g/ha, effect vs untreated controls
[18] = 320 g/ha, visual rating about 3 weeks after treatment
[19] = 80 g/ha, effect in comparison to untreated controls
[20] = 320 g/ha, effect in comparison to untreated controls

Row | Structure (SMILES) | Post-emergence action against ORYSA in % [8, 17] | Post-emergence action against ZEAMX in % (crop plant compatibility) [9] | Post-emergence action against ZEAMX in % ([9]; 80 g/ha) | Post-emergence action against TRZAS in % ([10]; 20 g/ha) | Post-emergence action against ORYSA in % [8, 19] | Post-emergence action against VIOTR in % ([1]; 320 g/ha) | Post-emergence action against SETVI in % ([2]; dosage 320 g/ha) | Post-emergence action against ECHCG in % ([3]; dosage 80 g/ha) | Post-emergence action against ECHCG in % ([3]; dosage 320 g/ha) | Post-emergence action against DIGSA in % ([4]; 320 g/ha) | Post-emergence action against VERPE in % ([5]; 320 g/ha, VERPE) | Post-emergence action against VERPE in % ([5]; dosage 80 g/ha) | Post-emergence action against MATIN in % ([6]; dosage 320 g/ha) | Post-emergence action against LOLRI in % ([7]; dosage 320 g/ha) | Post-emergence action against ALOMY in % ([11]; 320 g/ha) | Post-emergence action against AVEFA in % ([12]; 320 g/ha) | Post-emergence action against AMARE in % [13, 18] | Post-emergence action against VIOTR in % ([1]; 80 g/ha) | Post-emergence action against PHBPU in % ([14]; dosage 320 g/ha) | Post-emergence action against POLCO in % ([16]; dosage 320 g/ha) | further results
1 | O=C(COc1nn(-c2ncccc2F)c(-c2ccc(F)nc2)c1C1CC1)OCC1CCCC1 [Example I-251] | 10% | 20% | 20% | 10% |  | 90% | 90% | 80% | 90% | 90% | 90% | 80% | 90% | 90% | 80% | 90% | 90% |  |  |  | Post-emergence action against DIGSA in % ([4]; 80 g/ha): 80%; Post-emergence action against LOLRI in % ([7]; dosage 80 g/ha): 90%
2 | O=C(COc1nn(-c2ncccc2F)c(-c2ccc(F)nc2)c1C1CC1)ON=C1CCCC1 [Example I-380] | 0% | 0% | 20% | 20% | 10% | 90% | 90% | 80% | 90% | 90% | 90% | 80% |  | 90% | 90% | 90% |  | 90% |  | 80% | Post-emergence action against SETVI in % ([2]; dosage 80 g/ha): 80%; Post-emergence action against DIGSA in % ([4]; 80 g/ha): 80%; Post-emergence action against ABUTH in % ([15]; 80 g/ha): 80%; Post-emergence action against ABUTH in % ([15]; 320 g/ha): 90%; Post-emergence action against LOLRI in % ([7]; dosage 80 g/ha): 90%; Post-emergence action against AVEFA in % ([12]; 80 g/ha): 90%
3 | C[C@@H](Oc1nn(-c2ncccc2F)c(-c2ccnc(F)c2)c1Br)C(=O)O [Example I-140] | 0% |  |  | 10% | 0% | 90% |  |  | 80% | 80% | 90% |  |  | 90% | 100% | 90% | 90% | 90% |  | 90% | Post-emergence action against ABUTH in % ([15]; 320 g/ha): 80%; Post-emergence action against ORYSA in % [8, 20]: 10%
4 | COC(=O)CCOC(=O)COc1nn(-c2ncccc2F)c(-c2ccc(F)nc2)c1C1CC1 [Example I-383] |  | 10% | 20% | 20% |  | 90% | 80% | 80% | 90% | 90% | 90% | 80% | 80% | 90% | 90% | 80% | 80% | 80% |  |  | Post-emergence action against SETVI in % ([2]; dosage 80 g/ha): 80%; Post-emergence action against DIGSA in % ([4]; 80 g/ha): 80%; Post-emergence action against LOLRI in % ([7]; dosage 80 g/ha): 80%; Post-emergence action against AVEFA in % ([12]; 80 g/ha): 80%
5 | COC(=O)[C@@H](C)Oc1nn(-c2ncccc2F)c(-c2ccnc(F)c2)c1Br [Example I-134] | 0% | 10% |  | 20% | 10% |  | 80% |  | 80% | 80% | 80% | 80% |  | 90% | 90% |  |  |  |  |  | Post-emergence action against LOLRI in % ([7]; dosage 80 g/ha): 80%

Continued, in another order:

Row | Post-emergence action against ORYSA in % [8, 17] | Post-emergence action against ZEAMX in % (crop plant compatibility) [9] | Post-emergence action against ZEAMX in % ([9]; 80 g/ha) | Post-emergence action against TRZAS in % ([10]; 20 g/ha) | Post-emergence action against ORYSA in % [8, 19] | Structure (SMILES) | Post-emergence action against VIOTR in % ([1]; 320 g/ha) | Post-emergence action against SETVI in % ([2]; dosage 320 g/ha) | Post-emergence action against ECHCG in % ([3]; dosage 80 g/ha) | Post-emergence action against ECHCG in % ([3]; dosage 320 g/ha) | Post-emergence action against DIGSA in % ([4]; 320 g/ha) | Post-emergence action against VERPE in % ([5]; 320 g/ha, VERPE) | Post-emergence action against VERPE in % ([5]; dosage 80 g/ha) | Post-emergence action against MATIN in % ([6]; dosage 320 g/ha) | Post-emergence action against LOLRI in % ([7]; dosage 320 g/ha) | Post-emergence action against ALOMY in % ([11]; 320 g/ha) | Post-emergence action against AVEFA in % ([12]; 320 g/ha) | Post-emergence action against AMARE in % [13, 18] | Post-emergence action against VIOTR in % ([1]; 80 g/ha) | Post-emergence action against PHBPU in % ([14]; dosage 320 g/ha) | Post-emergence action against POLCO in % ([16]; dosage 320 g/ha) | further results
6 | 10% | 10% | 10% | 10% | 20% | CCOC(=O)COc1nn(-c2ncccc2F)c(-c2ccnc(F)c2)c1Br [Example I-136] | 80% | 90% |  | 80% | 80% |  |  | 80% | 80% | 90% |  |  | 80% | 90% |  | Post-emergence action against ZEAMX in % ([9]; 320 g/ha): 20%
7 | 0% | 0% | 0% | 0% | 0% | O=C(O)COc1nn(-c2ncccc2F)c(-c2ccnc(F)c2)c1Br [Example I-139] | 90% |  |  | 80% | 90% | 90% | 80% |  |  | 90% |  | 90% | 80% | 80% | 90% | Post-emergence action against ABUTH in % ([15]; 320 g/ha): 80%; Post-emergence action against ORYSA in % [8, 20]: 10%; Post-emergence action against ZEAMX in % ([9]; 320 g/ha): 10%; Post-emergence action against ALOMY in % ([11]; 80 g/ha): 90%; Post-emergence action against AMARE in % ([13]; 80 g/ha, visual rating about 3 weeks after treatment vs untreated controls (100% = plants have died, 0% = like control plants)): 80%
8 | 20% |  |  | 20% |  | O=C(O)COc1nn(-c2ccccn2)c(-c2ccc(F)nc2)c1Cl [Example I-266] | 90% | 80% | 80% | 90% | 90% | 90% | 80% | 90% | 90% | 90% |  | 90% | 80% | 90% | 90% | Post-emergence action against MATIN in % ([6]; dosage 80 g/ha): 80%; Post-emergence action against PHBPU in % ([14]; dosage 80 g/ha): 80%; Post-emergence action against POLCO in % ([16]; dosage 80 g/ha): 80%
9 | 0% | 10% | 10% | 0% | 10% | O=C(O)COc1nn(-c2ncccc2F)c(-c2cncc(F)c2)c1Cl [Example I-169] | 80% | 80% | 80% | 90% | 90% | 90% | 80% | 90% | 80% |  | 80% |  |  | 90% | 80% | Post-emergence action against MATIN in % ([6]; dosage 80 g/ha): 80%; Post-emergence action against PHBPU in % ([14]; dosage 80 g/ha): 80%; Post-emergence action against POLCO in % ([16]; dosage 80 g/ha): 80%
10 | 0% | 20% |  | 0% | 0% | Cc1ncccc1-n1nc(OCC(=O)O)c(Cl)c1-c1cncc(F)c1 [II-42] | 90% | 90% |  | 90% | 80% | 90% | 80% | 80% |  | 90% | 90% | 90% | 80% | 90% | 80% | Post-emergence action against ORYSA in % [8, 20]: 0%; Post-emergence action against TRZAS in % ([10]; 80 g/ha): 20%; Post-emergence action against ALOMY in % ([11]; 80 g/ha): 80%
11 | 0% | 0% | 0% | 20% | 0% | COC(=O)COc1nn(-c2cccnc2C)c(-c2cncc(F)c2)c1Cl [II-44] | 90% | 90% |  | 90% | 80% | 90% | 80% |  |  | 100% |  | 90% | 80% |  | 90% | Post-emergence action against ABUTH in % ([15]; 320 g/ha): 80%; Post-emergence action against TRZAS in % ([10]; 80 g/ha): 20%
